Patent US20050148631A1, “Amino heterocyclyl inhibitors of 11-beta-hydroxy steroid dehydrogenase type 1” (AGOURON PHARMACEUTICALS, INC., priority 2003, published 2005)
Read-outs that look alike come from different tables or passages of the source.

How the values were obtained:
11β-hsd-1 enzyme [1] = biological target: T1, 11β-hsd-1 enzyme (Homo sapiens, UniProt P28845); assay: 11β-hsd-1 enzyme assay, Kiapp determination (3H-cortisone to cortisol, radio-HPLC); format: biochemical; conditions: read-out: Ki app
11β-hsd-1 enzyme [2] = biological target: T1, 11β-hsd-1 enzyme; assay: 11β-hsd-1 enzyme assay, percentage of inhibition (3H-cortisone to cortisol, radio-HPLC); format: biochemical; conditions: read-out: % inh @ 0.1 uM

T1 sequence (P28845 whole entry, species assumed): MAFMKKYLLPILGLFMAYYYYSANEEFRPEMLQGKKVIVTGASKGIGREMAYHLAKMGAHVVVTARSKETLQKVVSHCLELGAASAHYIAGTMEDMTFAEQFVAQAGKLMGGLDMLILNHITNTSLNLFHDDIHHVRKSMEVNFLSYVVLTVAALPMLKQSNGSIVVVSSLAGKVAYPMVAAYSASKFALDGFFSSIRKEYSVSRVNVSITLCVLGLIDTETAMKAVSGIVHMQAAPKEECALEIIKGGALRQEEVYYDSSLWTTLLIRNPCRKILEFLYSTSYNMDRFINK

**Q.** How did the Ki (11β-hsd-1 enzyme [1]) turn out when CCOc1cccc(-c2ccc(S(=O)(=O)Nc3cccc(C)n3)c(C)c2)c1 [Example 165] was run?
**A.** 43 nM

**Q.** And the inhibition at 0.1 µM (11β-hsd-1 enzyme [2]; 0.1 uM)?
**A.** 71%

**Q.** How did the Ki (11β-hsd-1 enzyme [1]) turn out when Cc1cccc(NS(=O)(=O)c2ccc(-c3ccccc3)cc2C)n1 [Example 166] was run?
**A.** 12 nM

**Q.** And the inhibition at 0.1 µM (11β-hsd-1 enzyme [2]; 0.1 uM)?
**A.** 95%

**Q.** With Cc1cccc(NS(=O)(=O)c2ccc(-c3ccc(Cl)cc3Cl)cc2C)n1 [Example 167] as the compound, how does the Ki (11β-hsd-1 enzyme [1]) read?
**A.** 36 nM

**Q.** And the inhibition at 0.1 µM (11β-hsd-1 enzyme [2]; 0.1 uM)?
**A.** 100%

**Q.** Which results are given for Cc1cccc(NS(=O)(=O)c2ccc(-c3ccc(Cl)cc3)cc2C)n1 [Example 168]?
**A.** Ki (11β-hsd-1 enzyme [1]): 2.8 nM; inhibition at 0.1 µM (11β-hsd-1 enzyme [2]; 0.1 uM): 96%

**Q.** Which Ki (11β-hsd-1 enzyme [1]) does the source give for COc1ccc(-c2ccc(S(=O)(=O)Nc3cccc(C)n3)c(C)c2)cc1 [Example 169] here?
**A.** 19 nM

**Q.** What about the inhibition at 0.1 µM (11β-hsd-1 enzyme [2]; 0.1 uM) of the same compound?
**A.** 93%

**Q.** With Cc1cccc(NS(=O)(=O)c2ccc(-c3ccc(F)c(Cl)c3)cc2C)n1 [Example 170] as the compound, how does the Ki (11β-hsd-1 enzyme [1]) read?
**A.** 8.1 nM

**Q.** And the inhibition at 0.1 µM (11β-hsd-1 enzyme [2]; 0.1 uM)?
**A.** 93%

**Q.** With Cc1ccc(-c2ccc(S(=O)(=O)Nc3cccc(C)n3)c(C)c2)cc1 [Example 171] as the compound, how does the Ki (11β-hsd-1 enzyme [1]) read?
**A.** 6.9 nM

**Q.** And the inhibition at 0.1 µM (11β-hsd-1 enzyme [2]; 0.1 uM)?
**A.** 93%

**Q.** What does the source list for Cc1cccc(NS(=O)(=O)c2ccc(-c3ccccc3C)cc2C)n1 [Example 172]?
**A.** Ki (11β-hsd-1 enzyme [1]): 48 nM; inhibition at 0.1 µM (11β-hsd-1 enzyme [2]; 0.1 uM): 82%

**Q.** For Cc1cccc(NS(=O)(=O)c2ccc(-c3cccc(F)c3)cc2C)n1 [Example 173], which Ki (11β-hsd-1 enzyme [1]) is on record?
**A.** 9.6 nM

**Q.** And the inhibition at 0.1 µM (11β-hsd-1 enzyme [2]; 0.1 uM)?
**A.** 97%

**Q.** Which Ki (11β-hsd-1 enzyme [1]) does the source give for Cc1cccc(NS(=O)(=O)c2ccc(-c3cc(Cl)cc(Cl)c3)cc2C)n1 [Example 174] here?
**A.** 3.2 nM

**Q.** What about the inhibition at 0.1 µM (11β-hsd-1 enzyme [2]; 0.1 uM) of the same compound?
**A.** 98%

**Q.** Which results are given for Cc1cccc(NS(=O)(=O)c2ccc(-c3ccc(Cl)c(Cl)c3)cc2C)n1 [Example 176]?
**A.** Ki (11β-hsd-1 enzyme [1]): 5.2 nM; inhibition at 0.1 µM (11β-hsd-1 enzyme [2]; 0.1 uM): 100%

**Q.** What does the source list for Cc1cccc(NS(=O)(=O)c2ccc(-c3cccc(C#N)c3)cc2C)n1 [Example 177]?
**A.** Ki (11β-hsd-1 enzyme [1]): 20 nM; inhibition at 0.1 µM (11β-hsd-1 enzyme [2]; 0.1 uM): 85%

**Q.** Which results are given for Cc1cccc(NS(=O)(=O)c2ccc(-c3cc(F)cc(F)c3)cc2C)n1 [Example 178]?
**A.** Ki (11β-hsd-1 enzyme [1]): 8.2 nM; inhibition at 0.1 µM (11β-hsd-1 enzyme [2]; 0.1 uM): 95%

**Q.** Cc1cccc(NS(=O)(=O)c2ccc(-c3ccc(F)cc3F)cc2C)n1 [Example 179] was tested. Which Ki (11β-hsd-1 enzyme [1]) did it give?
**A.** 6.2 nM

**Q.** And the inhibition at 0.1 µM (11β-hsd-1 enzyme [2]; 0.1 uM)?
**A.** 95%

**Q.** Which Ki (11β-hsd-1 enzyme [1]) does the source give for Cc1cccc(NS(=O)(=O)c2ccc(-c3ccc(CO)cc3)cc2C)n1 [Example 180] here?
**A.** 75 nM

**Q.** And the inhibition at 0.1 µM (11β-hsd-1 enzyme [2]; 0.1 uM)?
**A.** 65%

**Q.** Cc1cccc(NS(=O)(=O)c2ccc(-c3ccccc3O)cc2C)n1 [Example 181] was tested. Which Ki (11β-hsd-1 enzyme [1]) did it give?
**A.** 53 nM

**Q.** And the inhibition at 0.1 µM (11β-hsd-1 enzyme [2]; 0.1 uM)?
**A.** 83%

**Q.** Which Ki (11β-hsd-1 enzyme [1]) does the source give for COc1ccc(-c2ccc(S(=O)(=O)Nc3cccc(C)n3)c(C)c2)cc1OC [Example 182] here?
**A.** 23 nM

**Q.** What about the inhibition at 0.1 µM (11β-hsd-1 enzyme [2]; 0.1 uM) of the same compound?
**A.** 79%

**Q.** Which results are given for Cc1cccc(NS(=O)(=O)c2ccc(-c3ccc(F)c(C)c3)cc2C)n1 [Example 183]?
**A.** Ki (11β-hsd-1 enzyme [1]): 14 nM; inhibition at 0.1 µM (11β-hsd-1 enzyme [2]; 0.1 uM): 91%

**Q.** Which results are given for Cc1cccc(NS(=O)(=O)c2ccc(-c3cc(F)c(F)c(F)c3)cc2C)n1 [Example 184]?
**A.** Ki (11β-hsd-1 enzyme [1]): 12 nM; inhibition at 0.1 µM (11β-hsd-1 enzyme [2]; 0.1 uM): 97%

**Q.** Cc1cccc(NS(=O)(=O)c2ccc(-c3cccc(O)c3)cc2C)n1 [Example 185] was tested. Which Ki (11β-hsd-1 enzyme [1]) did it give?
**A.** 46 nM

**Q.** What about the inhibition at 0.1 µM (11β-hsd-1 enzyme [2]; 0.1 uM) of the same compound?
**A.** 71%

**Q.** Which Ki (11β-hsd-1 enzyme [1]) does the source give for Cc1cccc(NS(=O)(=O)c2ccc(-c3ccccc3F)cc2C)n1 [Example 186] here?
**A.** 9.3 nM

**Q.** And the inhibition at 0.1 µM (11β-hsd-1 enzyme [2]; 0.1 uM)?
**A.** 95%

**Q.** For COc1ccc(-c2ccc(S(=O)(=O)Nc3cccc(C)n3)c(C)c2)cc1F [Example 187], which Ki (11β-hsd-1 enzyme [1]) is on record?
**A.** 9.5 nM

**Q.** What about the inhibition at 0.1 µM (11β-hsd-1 enzyme [2]; 0.1 uM) of the same compound?
**A.** 93%

**Q.** Which Ki (11β-hsd-1 enzyme [1]) does the source give for Cc1cccc(NS(=O)(=O)c2ccc(-c3ccc(C(C)C)cc3)cc2C)n1 [Example 190] here?
**A.** 35 nM

**Q.** What about the inhibition at 0.1 µM (11β-hsd-1 enzyme [2]; 0.1 uM) of the same compound?
**A.** 78%

**Q.** How did the Ki (11β-hsd-1 enzyme [1]) turn out when CCc1ccc(-c2ccc(S(=O)(=O)Nc3cccc(C)n3)c(C)c2)cc1 [Example 191] was run?
**A.** 11 nM

**Q.** And the inhibition at 0.1 µM (11β-hsd-1 enzyme [2]; 0.1 uM)?
**A.** 100%

**Q.** For CCOc1ccc(-c2ccc(S(=O)(=O)Nc3cccc(C)n3)c(C)c2)cc1 [Example 192], which Ki (11β-hsd-1 enzyme [1]) is on record?
**A.** 15 nM

**Q.** What about the inhibition at 0.1 µM (11β-hsd-1 enzyme [2]; 0.1 uM) of the same compound?
**A.** 81%

**Q.** With Cc1cccc(NS(=O)(=O)c2ccc(-c3cccc(C(C)C)c3)cc2C)n1 [Example 193] as the compound, how does the Ki (11β-hsd-1 enzyme [1]) read?
**A.** 39 nM

**Q.** What about the inhibition at 0.1 µM (11β-hsd-1 enzyme [2]; 0.1 uM) of the same compound?
**A.** 78%

**Q.** For Cc1cccc(NS(=O)(=O)c2ccc(-c3ccccc3C#N)cc2C)n1 [Example 195], which Ki (11β-hsd-1 enzyme [1]) is on record?
**A.** 17 nM

**Q.** What about the inhibition at 0.1 µM (11β-hsd-1 enzyme [2]; 0.1 uM) of the same compound?
**A.** 82%

**Q.** Cc1cccc(NS(=O)(=O)c2ccc(-c3cccc(Cl)c3Cl)cc2C)n1 [Example 196] was tested. Which Ki (11β-hsd-1 enzyme [1]) did it give?
**A.** 7.1 nM

**Q.** What about the inhibition at 0.1 µM (11β-hsd-1 enzyme [2]; 0.1 uM) of the same compound?
**A.** 90%

**Q.** Cc1cccc(NS(=O)(=O)c2ccc(-c3cccc(C)c3C)cc2C)n1 [Example 197] was tested. Which Ki (11β-hsd-1 enzyme [1]; apparent Ki, 11β-hsd-1 enzyme) did it give?
**A.** 29 nM

**Q.** And the inhibition at 0.1 µM (11β-hsd-1 enzyme [2]; compound at 0.1 uM)?
**A.** 89%

**Q.** Cc1cccc(NS(=O)(=O)c2ccc(-c3cccc(F)c3F)cc2C)n1 [Example 198] was tested. Which Ki (11β-hsd-1 enzyme [1]; apparent Ki, 11β-hsd-1 enzyme) did it give?
**A.** 7.5 nM

**Q.** And the inhibition at 0.1 µM (11β-hsd-1 enzyme [2]; compound at 0.1 uM)?
**A.** 100%

**Q.** How did the Ki (11β-hsd-1 enzyme [1]; apparent Ki, 11β-hsd-1 enzyme) turn out when Cc1cccc(NS(=O)(=O)c2ccc(-c3ccc(S(C)(=O)=O)cc3)cc2C)n1 [Example 200] was run?
**A.** 21 nM

**Q.** And the inhibition at 0.1 µM (11β-hsd-1 enzyme [2]; compound at 0.1 uM)?
**A.** 88%

**Q.** With CCc1ccccc1-c1ccc(S(=O)(=O)Nc2cccc(C)n2)c(C)c1 [Example 201] as the compound, how does the Ki (11β-hsd-1 enzyme [1]; apparent Ki, 11β-hsd-1 enzyme) read?
**A.** 43 nM

**Q.** What about the inhibition at 0.1 µM (11β-hsd-1 enzyme [2]; compound at 0.1 uM) of the same compound?
**A.** 75%

**Q.** Which results are given for Cc1cccc(NS(=O)(=O)c2ccc(-c3cc(F)ccc3F)cc2C)n1 [Example 202]?
**A.** Ki (11β-hsd-1 enzyme [1]; apparent Ki, 11β-hsd-1 enzyme): 14 nM; inhibition at 0.1 µM (11β-hsd-1 enzyme [2]; compound at 0.1 uM): 88%
